Data set [1] has as its system EL-4 cells. As to conditions: mouse, 24 h.
Experimental: (§2) EL-4 cells that are mouse T lymphoma cells were suspended in 10% fetal bovine serum-containing RPMI medium (Gibco) at a concentration of 5×10^4 cells/ml, and 100 μl of the cell suspension was seeded into each well of a 96-well plate and cultured for 12 hours. Next, the cell culture was treated with monoacetyldiacylglycerol (MADG) compounds at the concentrations shown in Table 1 below, and was then additionally cultured for 24 hours. Next, according to the instruction provided in a CCK-8 kit (Dojindo) capable of counting cells, 10 μl of CCK-8 solution was added to the kit and allowed to react for 30 minutes to 4 hours, and then the absorbance (OD) at 570 nm was measured. In equation 1, the negative control group indicates a cell culture treated with 0.2% DMSO. […] Cell viability (%)=[(OD 570 nm value of MADC-treated group)/(OD 570 nm value of negative control group)]×100 Equation 1
The subject of data set [2] is ovalbumin-induced asthma Balb/c mice. The data set is described as follows: Airway hyperresponsiveness (Pehn, plethysmography) in ovalbumin-induced asthma model. The data set is classed as in vivo, mouse. As to conditions: 30 mg/kg oral. As to the method:
(§1) 6-week-old female SPF (specific pathogen-free) Balb/c mice (average weight: 20 g) were purchased from Samtako (Korea). The animals were sufficiently fed with solid feed (antibiotic-free, Samyang Feed Co.) and water until the start point of the experiment, and acclimated at a temperature of 22±2° C., a humidity of 55±15%, and a 12-hr light/12-hr dark cycle for 1 week, and then used in experiments. After 1 week of the acclimation period as described above, the mice were sensitized by intraperitoneal administration of a suspension of 2 mg of aluminum oxide (A8222, Sigma-Aldrich, MO, USA) and 20 μg of ovalbumin (A5503, Sigma-Aldrich) in 200 μl of phosphate buffered saline at two-week intervals. During a period from day 21 to day 23 after the first intraperitoneal administration of ovalbumin, 1% ovalbumin was inhaled into the mice for 30 minutes using an ultrasonic nebulizer (NE-U12, Omron Corp., Japan). At 24 hours after the last ovalbumin challenge, the airway hyperresponsiveness of the mice was measured, and after 48 hours, the mice were anesthetized by intraperitoneal administration of Pentobarbital (50 mg/kg, Entobal, Hanil, Korea). Then, blood was collected through the saphenous vein, and the mice were subjected to tracheostomy. Next, each of the mice was subjected to bronchoalveolar lavage with a total of 1.4 ml of PBS to collect an analytical sample. […] The drug and the sample were administered orally during a period from day 18 to day 23 after the first ovalbumin […] (FIG. 1). Seven mice were used per group.
To measure airway hyperresponsiveness that is one of the major features of asthma, one chamber plethysmography (All Medicus, Korea) was used. The degree of airway resistance was evaluated by measuring enhanced pause (Pehn). For measurement of Pehn, the basis value was measured in a normal breathing state, and then PBS was inhaled for 3 minutes using an ultrasonic nebulizer, after which the Pehn value was measured for 3 minutes.

For data set [3] the test system is unchanged. The data set is described as follows: Inflammatory cell count in bronchoalveolar lavage fluid, ovalbumin-induced asthma model. The data set is classed as in vivo, mouse. As to conditions: BALF; 30 mg/kg oral. As to the method: as §1
An increase in the number of eosinophils is one of the major features of asthma. Thus, in order to measure the number of eosinophils, the following experiment was performed. The bronchoalveolar lavage fluid from each mouse was stained with trypan blue immediately after collection, and the number of total cells (excluding dead cells) was calculated using a hemocytometer.

The subject of data set [4] is interleukins (IL-4, IL-5 and IL-13). The data set is described as follows: Th2 cytokines in bronchoalveolar lavage fluid (ELISA), ovalbumin-induced asthma model. The data set is classed as in vivo, mouse. As to conditions: BALF; 30 mg/kg oral. As to the method: as §1
The production of interleukins (IL-4, IL-5 and IL-13) in the bronchoalveolar lavage fluid isolated from each mouse was measured using a commercially available enzyme-linked immunosorbent assay (ELISA) kit (R&D System, USA). The analysis of each cytokine was performed according to the manufacturer's instruction, and the absorbance at 450 nm was measured using an ELISA reader (Molecular Devices, USA).
In general terms: In an ELISA, binding on a coated surface is turned into a signal by an enzyme label.

For data set [5], the system named is serum IgE and ovalbumin-specific IgE. The data set is described as follows: Serum IgE and ovalbumin-specific IgE (ELISA), ovalbumin-induced asthma model. It is filed as in vivo, mouse. As to conditions: 30 mg/kg oral. As to the method: as §1
The blood collected through the saphenous vein was incubated at room temperature for 30 minutes, and then centrifuged (3000 rpm, 15 min) to obtain serum. For measurement of serum IgE and ovalbumin-specific IgE, ELISA was used. IgE was measured using commercially available IgE (Biolegend Ins., USA). For measurement of ovalbumin-specific IgE, in a 96-well flat bottom ELISA plate, ovalbumin was dissolved in 0.1 M NaHCO3 buffer (pH 8.3) at a concentration of 20 μg/mL and incubated at 4° C. for 16 hours. Next, PBS containing 1% bovine serum albumin (BSA) was added to suppress nonspecific reactions. The serum sample was diluted at 1:400, allowed to react at room temperature for 2 hours, and then washed with PBS containing 0.05% Tween 20. Horseradish peroxidase (HRP)-conjugated goat […] polyclonal A was diluted 4000-fold and allowed to react at room temperature for 1 hour, and then color development was performed using 3,3′5,5′-tetramethylbenzidine substrate.

A further data set deals with IL-4 mRNA. The data set can be described thus: Inhibition of PMA-induced expression of IL-4 mRNA in EL-4 cells (PCR). It is filed as cell-based, mouse. As to conditions: 20 μg/mL, PMA 1 ng/mL; for Inhibition (%) of IL-4 mRNA expression: compared to PMA-treated group. As to the method: Based on the results of Example 1, each of the monoacetyldiacylglycerol compounds was added to EL-4 cells at a concentration of 20 μg/mL, and the effect thereof on the inhibition of PMA-induced expression of IL-4 mRNA in the EL-4 cells was measured. Specifically, the expression level of IL-4 mRNA induced by PMA (1 ng/mL) was measured using real-time polymerase chain reaction (real-time PCR) and quantitative real time polymerase chain reaction (qPCR). For cell preparation, EL-4 cells were seeded into a 6-well plate at a concentration of 1×10^6 cells/well and cultured for 12 hours, after which the cells were treated with each of the monoacetyldiacylglycerol compounds at a concentration of 20 μg/mL for 1 hour and treated with PMA at a concentration of 1 ng/ml, followed by culture for 12 hours. Total RNA was extracted from the cells using Trizol B (Invitrogen, USA) and quantified, and then cDNA was synthesized from the total RNA using an Omniscript RT kit (Qiagen, GmbH, Hilden, Germany). The synthesized cDNA as a template was mixed with each of the IL-4 and GAPDH primers shown in Table 2 below and was subjected to PCR using a PCR mix (PCR Master Mix, Bioneer, Korea) under the following conditions: denaturation at 94° C. for 5 minutes; and then 30 cycles, each consisting of 30 sec at 95° C., 45 sec at 60° C., and 45 sec at 72° C.; followed by enzyme inactivation at 72° C. for 10 minutes. The results of measuring the percent inhibition of expression of IL-4 mRNA in EL-4 cells as described above are shown in Table 3 below. The designation of each of the samples shown in Table 3 below is as described with respect to Table 1 above.

Data set [6] has as its system EL-4 cells. The data set is described as follows: Cytotoxicity of monoacetyldiacylglycerol compounds in EL-4 cells (CCK-8 cell viability). As to conditions: 24 hours.
Experimental: as §2

Like-named read-outs stand apart in the source and are kept apart here. Marks after values point to notes of the source that are not given here.

As for `CCCCCCCC/C=C\CCCCCCCC(=O)OCC(COC(C)=O)OC(=O)CCCCCCCCCCCCCCC` (stereo not drawn) [OPAG, 1-oleoyl-2-palmitoyl-3-acetylglycerol], the “EL-4 cell viability (%, mean ± SD)” value with EL-4 cells [1] (5 μg/ml) is listed as 98.04 ± 0.94%; in the data set with EL-4 cells [1] (10 μg/ml) it was 98.91 ± 1.68%; in the data set on EL-4 cells [1] (20 μg/ml), 99.56 ± 2.86%.
In the same order, the values of `CCCCCCCC/C=C\CCCCCCCC(=O)OCC(COC(C)=O)OC(=O)CCCCCCCCCCCCCCCCC` (stereo not drawn) [OSAG, 1-oleoyl-2-stearoyl-3-acetylglycerol] are 102.62 ± 2.18%, 100.98 ± 2.37% and 100.22 ± 0.68%.
In the same order, the values of `CCCCCCCCCCCCCCCCCC(=O)OC(COC(C)=O)COC(=O)CCCCCCCCCCCCCCC` (stereo not drawn) [PSAG, 1-palmitoyl-2-stearoyl-3-acetylglycerol] are 98.46 ± 0.33%, 100.66 ± 1.25% and 103.30 ± 2.15%.
In data set [2] (methacholine 0 mg/mL), `CC(C)(O)c1ccccc1CC[C@@H](SCC1(CC(=O)O)CC1)c1cccc(/C=C/c2ccc3ccc(Cl)cc3n2)c1` [Mon, montelukast, reference compound] came in with a Pehn value of 0.590 ± 0.07. The same compound returned a Pehn value in data set [2] (methacholine 12.5 mg/mL) of 1.261 ± 0.29. The same compound had a Pehn value in data set [2] (methacholine 25 mg/mL) of 3.046 ± 0.61. Further, the Pehn value in data set [2] (methacholine 50 mg/mL) worked out at 4.182 ± 0.99. For the same compound, in data set [3], the “Inflammatory cell number, Eosinophils” value is given as 54 ± 17.8* 10^5 per mouse; the “Inflammatory cell number, Lymphocytes” value was 11 ± 10.6 10^5 per mouse; the “Inflammatory cell number, Macrophages” value is 99 ± 21.4* 10^5 per mouse; the “Inflammatory cell number, Neutrophils” value is listed as 14 ± 5.2 10^5 per mouse. In addition, the “Inflammatory cell number, Total cells” value in data set [3] is recorded as 179 ± 44.0* 10^5 per mouse. Moreover, in data set [4], the “Th2 cytokines, IL-4” value was 18.69 ± 3.00 pg/mL; the “Th2 cytokines, IL-5” value turned out to be 22.74 ± 3.59 pg/mL; the “Th2 cytokines, IL-13” value worked out at 81.42 ± 25.59 pg/mL. Moreover, in data set [5], the IgE worked out at 2.03 ± 0.49 µg/mL and the “OVA specific IgE” value turned out to be 198.15 ± 42.65 µg/mL.
As to `CCCCC/C=C\C/C=C\CCCCCCCC(=O)OCC(COC(C)=O)OC(=O)CCCCCCCCCCCCCCC` (stereo not drawn) [LPAG, 1-linoeoyl-2-palmitoyl-3-acetylglycerol], in the data set with IL-4 mRNA, the “Expression level of IL-4 mRNA (percentage relative to PMA-treated group)” value worked out at 61.11 ± 27.49%. Besides, in the data set with IL-4 mRNA, the “Inhibition (%) of IL-4 mRNA expression” value worked out at 38.89%. Besides, the figures for the “EL-4 cell viability (%, mean ± SD)” value in the data set on EL-4 cells [6] (5 μg/ml), in the data set with EL-4 cells [6] (10 μg/ml) and in the data set on EL-4 cells [6] (20 μg/ml) were 99.67 ± 1.15%, 98.91 ± 0.50% and 99.13 ± 1.18%, respectively.
Consider `CCCCC/C=C\C/C=C\CCCCCCCC(=O)OCC(COC(C)=O)OC(=O)CCCCCCCCCCCCCCCCC` (stereo not drawn) [LSAG, 1-linoeoyl-2-stearoyl-3-acetylglycerol], for which, in the data set on IL-4 mRNA, the “Expression level of IL-4 mRNA (percentage relative to PMA-treated group)” value is recorded as 41.62 ± 17.61%. In addition, in the data set on IL-4 mRNA, the “Inhibition (%) of IL-4 mRNA expression” value was determined as 58.38%. For the same compound, the “EL-4 cell viability (%, mean ± SD)” value was 103.82 ± 1.80% in the data set with EL-4 cells [6] (5 μg/ml), 101.85 ± 1.00% with EL-4 cells [6] (10 μg/ml) and 98.15 ± 1.82% with EL-4 cells [6] (20 μg/ml).
Consider `CCCCCCCC/C=C\CCCCCCCC(=O)OC(COC(C)=O)COC(=O)CCCCCCCCCCCCCCC` (stereo not drawn) [POAG, 1-palmitoyl-2-oleoyl-3-acetylglycerol], for which the “EL-4 cell viability (%, mean ± SD)” value was 106.94 ± 2.69% in the data set with EL-4 cells [1] (5 μg/ml), 106:39 ±1.19% with EL-4 cells [1] (10 μg/ml) and 98.90 ± 1.16% with EL-4 cells [1] (20 μg/ml).
With `CCCCCCCCCCCCCCCC(=O)OCC(COC(C)=O)OC(=O)CCCCCCCCCCCCCCC` (stereo not drawn) [PPAG, 1-palmitoyl-2-palmitoyl-3-acetylglycerol], the “EL-4 cell viability (%, mean ± SD)” value was found to be 106.28 ± 1.39% with EL-4 cells [1] (5 μg/ml), 105.84 ± 1.38% in the data set with EL-4 cells [1] (10 μg/ml) and 96.59 ± 0.69% with EL-4 cells [1] (20 μg/ml).

The record behind these values is US11135193B2, “Composition containing monoacetyldiacylglycerol compound as active ingredient for preventing or treating asthma” (Enzychem Lifesciences Corporation, priority 2013, dated 2021).
